Test results reported in patent US7173063B1, “Topoisomerase poisons for the treatment of proliferative disorders” (Fred Hutchinson Cancer Research Center, priority 2000, dated 2007).

Legend:
[1] = molecular target: T1, human Topo I (Homo sapiens, UniProt P11387); assay: Toxicity in yeast overexpressing human Topo I (hTOP1) or htop1-vac mutant; format: cell-based; details: GAL promoter, galactose-induced, vs vector
T1 construct: expressed in transfected cells; host or cells: S. cerevisiae BY4705 (S288C background), plasmid phTOP1 under the GAL promoter, vector pRS416
T1 sequence (P11387 2-765): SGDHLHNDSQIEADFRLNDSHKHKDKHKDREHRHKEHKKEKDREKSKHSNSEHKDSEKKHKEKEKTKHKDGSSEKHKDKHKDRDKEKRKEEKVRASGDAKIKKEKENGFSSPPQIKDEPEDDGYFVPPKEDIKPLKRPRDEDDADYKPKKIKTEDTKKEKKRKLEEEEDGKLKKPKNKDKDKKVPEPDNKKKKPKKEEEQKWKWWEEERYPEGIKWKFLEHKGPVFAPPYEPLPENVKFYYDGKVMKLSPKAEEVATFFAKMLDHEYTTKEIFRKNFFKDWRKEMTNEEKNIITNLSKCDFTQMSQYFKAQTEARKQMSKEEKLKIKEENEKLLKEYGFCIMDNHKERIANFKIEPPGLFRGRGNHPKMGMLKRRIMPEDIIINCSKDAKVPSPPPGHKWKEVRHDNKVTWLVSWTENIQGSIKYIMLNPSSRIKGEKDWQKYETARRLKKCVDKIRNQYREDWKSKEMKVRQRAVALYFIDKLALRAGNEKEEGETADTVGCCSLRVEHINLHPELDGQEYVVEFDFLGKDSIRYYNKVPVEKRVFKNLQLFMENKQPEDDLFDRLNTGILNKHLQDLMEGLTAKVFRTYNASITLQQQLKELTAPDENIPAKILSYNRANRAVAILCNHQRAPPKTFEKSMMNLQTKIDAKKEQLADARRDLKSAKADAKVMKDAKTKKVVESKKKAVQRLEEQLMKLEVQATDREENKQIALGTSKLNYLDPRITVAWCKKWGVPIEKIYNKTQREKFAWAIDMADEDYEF
Source text: The strains are derived from the A364a genetic background, with the exception of BY4705, which is derived from the S288C background. Gene disruptions were generated by PCR fragment directed replacement (Baudin, et al., Nucleic Acids Research 21: 3329–30 (1993), Guldener, et al., Nucleic Acids Research 24: 2519–24 (1996)). Yeast overexpressing topoisomerase II was constructed by a PCR fragment directed promoter replacement of the topoisomerase II promoter with the yeast GPD promoter flanked upstream by the URA3 marker. All strains (except BY4705) bear the pleitropic drug sensitizing mutations erg6, pdr1, and pdr3 (Balzi, et al., Journal of Bioenergetics & Biomembranes 27: 71–6 (1995), Delaveau, et al, Molecular & General Genetics 244: 501–11 (1994), Gaber, et al., Molecular & Cellular Biology 9: 3447–56 (1989), Saunders, et al., Canadian Journal of Genetics & Cytology, 24: 493–503 (1982). Subik, et al, Current Genetics 10: 665–70 (1986)). The haploid yeast strain BY4705 (Brachmann, et al., Yeast 14: 115–32 (1998)) was used in the experiments described in FIG. 5. Plasmids expressing yeast or human topoisomerase I genes under the GAL promoter (Knab, et al., Journal of Biological Chemistry 268: 22322–30 (1993). Knab, et al., Journal of Biological Chemistry 270: 6141–8 (1995)) were transformed into BY4705 using standard procedures. […]

[2] = system: Rat1a fibroblasts; assay: Effect of co-treatment with hydroxyurea (HU) on toxicity in Rat1a fibroblasts; format: cell-based, rat; details: six-hour exposure; 0, 0.25, 0.5 or 1 mM HU
Protocol: FIG. 6 illustrates the effect of exposure time and hydroxyurea on the toxicity of compound Ia and compound IIa. […] Rat1a fibroblasts were exposed to compound during growth for either four or six hours, the media was changed, then cells were grown for an appropriate period such that total incubation time was 96 hours, and processed as described in the Example below. […] The bar graph insets for each graph show growth inhibition by HU alone.
Cells were plated at a density of 500 cells per well in opaque 96 well plates (Packard) in a volume of 135 μL per well of the appropriate media. The plates were incubated overnight to allow cell adherence. Seven two-fold dilutions of the test compounds were added in a volume of 15 μL per well in triplicate, and 15 μL of media containing an appropriate concentration of DMSO was added to control wells in triplicate. Plates were incubated at 37° C. for 96 hours. The media was then replaced with 100 μL per well of the appropriate media containing 2 μCi/mL of (methyl-^3H) thymidine (Amersham Pharmacia Biotech), then plates were incubated for a further 24 hours at 37° C. Cells were washed three times with PBS, then 100 μL per well of scintillant was added (Microscint 20, Packard), and sealed plates were counted in a microplate reader (Packard Topcount). For suspension chicken cells, (methyl-^3H) thymidine was added directly to the drug-containing media at a concentration of 20 μCi/mL (comprising one tenth of the media volume) and incubated overnight. The suspension cells were transferred to a UniFilter GF/C plate (Packard) and washed with PBS in a plate washer (Packard). After drying, 25 μL per well of scintillant (Microscint 20, Packard) was added, and sealed plates were counted. Toxicity is expressed as a percentage of the control counts. For experiments involving shorter exposures to compounds, cells were grown in the presence of compound for the appropriate time, then the media was replaced with fresh drug-free media, and incubation continued for the remainder of 96 hours, followed by the normal tritiated thymidine uptake and washing protocol.
A six-hour exposure was used to test whether the toxicity of the same set of compounds is dependent on ongoing DNA synthesis. […] Thus, in contrast to camptothecin and topotecan, compounds Ia and IIa show no marked time dependency for toxicity (FIG. 6A) and are not inhibited by HU (FIG. 6B), indicating critical mechanistic differences between these compounds and camptothecin.

Row | Structure (SMILES) | effect of hTOP1 overexpression on toxicity [1] | change of toxicity caused by HU co-treatment [2] | inhibition of toxicity by co-treatment with HU [2]
1 | O=c1c(Cl)c(Cl)cnn1CCCl [compound IIa] | accentuates the toxicity | slight accentuation of toxicity | not inhibited by co-treatment with HU
2 | O=C(CCl)Nc1ccc(C(=O)N/N=C/c2ccc(Cl)cc2)cc1 [compound Ia] | Little or no accentuation | slight accentuation of toxicity | not inhibited by co-treatment with HU
